Molecular target: recombinant human angiotensin-II receptor subtype 2 (hAT2R) (Homo sapiens (Human), UniProt P50052)
Assay: Competitive radioligand binding assay (SPA), hAT2R HEK293 membranes
Settings: [125I]-Tyr4-Angiotensin-II, read-out: AT2R Ki
Procedure: Compound Solubilization Test and reference compounds were received as dry powder reagents, weighed, and solubilized in 100% DMSO to generate a working stock concentration of 10 mM. Membrane Preparation Protocol (hAT2R HEK293 and rAT2R HEK293) hAT2R membranes were prepared from human embryonic kidney (HEK293) cells which were stably transfected with recombinant human angiotensin-II receptor subtype 2 (hAT2R). Cells from the stable cell lines were expanded in tissue culture flasks to generate a large population of cells; cell pellet (>1 gm), and these cell pellets were stored frozen prior to initiating this membrane isolation procedure for each receptor isoform. Frozen cell pellets were thawed in ice-cold homogenization/resuspension buffer (50 mM Tris-HCl, pH 7.5) containing one Complete© protease inhibitor tablet with EDTA (Roche Diagnostics) per 50 mL buffer, and cell pellet was resuspended at a ratio of 10 mL homogenization buffer to gram of starting cell pellet. Cell suspension was homogenized with an overhead motor-driven Teflon-glass homogenizer using 15 to 20 strokes, followed by centrifugation at 1100×g for 10 minutes at 4° C. The supernatant was saved on ice, pellets were homogenized as before, and centrifuged at 1100×g for 10 minutes at 4° C. Both supernatants were combined and subsequently centrifuged at 35,000×g for 60 minutes at 4° C. The final centrifugation pellet (pellet 2) containing the isolated membranes was resuspended in buffer (4 to 5 mL/g of starting cell paste) containing protease inhibitors and quick frozen in liquid nitrogen prior to storage at -80° C. Protein concentration was determined using a BCA kit (ThermoScientific, Inc.) with bovine serum albumin (BSA) as standard. […] The assays were performed with a scintillation proximity assay (SPA) method using polyvinyltoluene (PVT) wheat germ agglutinin-coupled SPA beads (Perkin Elmer Cat. #RPNQ0001). Assay buffer containing BSA (50 mM Tris-HCl, pH 7.5, 150 mM NaCl, 0.1% w/v fatty-acid free BSA) was used for preparing radioligand, membrane and SPA bead reagent dilution to working stock concentrations. Reference control and test compounds were diluted to obtain ten-point concentration response curves using a four-fold serial dilution protocol onto assay plates, dispensed acoustically from DMSO stock using automated ECHO instrument technology (Labcyte, Inc.). Concentration response curves were routinely generated with the highest final assay concentration for the reference angiotensin-II control at 50 nM, and the highest final assay concentration for the test compounds at 50 μM. […] The hAT2R membrane was combined with PVT-WGA SPA beads to obtain a final assay concentration of 0.25 μg/well hAT2R membrane+0.1 mg/well PVT-WGA SPA bead. And the hAT1R membrane PVT-WGA SPA bead final concentrations was 0.5 μg/well hAT1R membrane+0.1 mg/well PVT-WGA SPA bead. […] For all assays, radioligand addition was followed by the addition of membrane-SPA bead mixture, i.e., the hAT2R membrane-SPA bead mixture (30 μL), the rAT2R membrane-SPA bead mixture, or the AT1R membrane-SPA bead mixture (30 μL) into the assay plate. All dispensing steps were added using a Multiflo FX (Biotek, Inc.) bulk dispensing instrument. After reagent addition steps, assay plates were sealed, and plate contents mixed for one minute on a benchtop micro-plate shaker. Following a 10-hour incubation at room temperature to allow for bead settling and radioligand binding, bound radioactivity was quantitated using a Microbeta Trilux scintillation counter (Perkin Elmer) and expressed as counts per minute (CPM). The unlabeled angiotensin-II control was included on each plate as an experimental assay reference. […] Data Analysis Procedures Compounds were tested in a 10-point concentration response curve (CRC) format, with each plate containing the positive control angiotensin-II positive reference compound, and experimental compounds.

recombinant human angiotensin-II receptor subtype 2 (hAT2R), sequence (P50052 whole entry): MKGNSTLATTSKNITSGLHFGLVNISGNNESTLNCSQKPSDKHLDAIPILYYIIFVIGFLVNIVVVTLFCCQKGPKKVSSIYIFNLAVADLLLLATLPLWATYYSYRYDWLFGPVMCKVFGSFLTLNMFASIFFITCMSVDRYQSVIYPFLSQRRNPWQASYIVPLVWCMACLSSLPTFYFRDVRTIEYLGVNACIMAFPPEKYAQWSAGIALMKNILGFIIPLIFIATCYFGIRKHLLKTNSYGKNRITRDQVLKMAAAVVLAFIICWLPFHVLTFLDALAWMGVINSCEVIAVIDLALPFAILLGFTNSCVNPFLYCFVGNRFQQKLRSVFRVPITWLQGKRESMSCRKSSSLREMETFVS

Row | SMILES | Ki
1 | CN(C(=O)N1CCC(CC(=O)N(c2ccccc2)C2CCCCC2(F)F)(C(=O)O)CC1)c1ccc(F)cc1 (racemic) [Example 10, 4-[2-(N-(2,2-difluorocyclohexyl)anilino)-2-oxo-ethyl]-1-[(4-fluorophenyl)-methyl-carbamoyl]piperidine-4-carboxylic acid] | 1.56 nM
2 | CCC(C1CC1)N(C(=O)CC1(C(=O)O)CCN(C(=O)N(C)c2ccc(F)cc2)CC1)c1ccccc1 (racemic) [Example 17, 4-[2-[N-(1-cyclopropylpropyl)anilino]-2-oxo-ethyl]-1-[(4-fluorophenyl)-methyl-carbamoyl]piperidine-4-carboxylic acid] | 5.82 nM
3 | CC(C)C(C)N(C(=O)CC1(C(=O)O)CCN(C(=O)N(C)c2ccc(F)cc2)CC1)c1ccccc1 (racemic) [Example 34, 4-[2-(N-[(1)-1,2-dimethylpropyl]anilino)-2-oxo-ethyl]-1-[(4-fluorophenyl)-methyl-carbamoyl]piperidine-4-carboxylic acid] | 4.32 nM
4 | CC(CC(F)F)N(C(=O)CC1(C(=O)O)CCN(C(=O)N(C)c2ccc(F)cc2)CC1)c1ccccc1 (racemic) [Example 36, 4-[2-(N-(3,3-difluoro-1-methyl-propyl)anilino)-2-oxo-ethyl]-1-[(4-fluorophenyl)-methyl-carbamoyl]piperidine-4-carboxylic acid] | 4.43 nM
5 | CN(C(=O)N1CCC(CC(=O)N(c2ccccc2)C2CCCOC2)(C(=O)O)CC1)c1ccc(F)cc1 (racemic) [Example 41, 1-[(4-fluorophenyl)-methyl-carbamoyl]-4-[2-oxo-2-(N-tetrahydropyran-3-ylanilino)ethyl]piperidine-4-carboxylic acid] | 16.6 nM
6 | CC(C1CC1)N(C(=O)CC1(C(=O)O)CCN(C(=O)N(C)c2ccc(F)cc2)CC1)c1ccccc1 (racemic) [Example 43, 4-[2-[N-(1-cyclopropylethyl)anilino]-2-oxo-ethyl]-1-[(4-fluorophenyl)-methyl-carbamoyl]piperidine-4-carboxylic acid] | 2.93 nM
7 | CN(C(=O)N1CCC(CC(=O)N(c2ccccc2)C2CCCOC2)(C(=O)O)CC1)c1ccc(C2CC2)cc1 (racemic) [Example 45, 1-[(4-cyclopropylphenyl)-methyl-carbamoyl]-4-[2-oxo-2-(N-tetrahydropyran-3-ylanilino)ethyl]piperidine-4-carboxylic acid] | 3.12 nM
8 | CC(C)c1ccc(C(=O)N2CCC(CC(=O)N(c3ccccc3)C3CCCC(F)(F)C3)(C(=O)O)CC2)cc1 (racemic) [Example 69, 4-[2-(N-(3,3-difluorocyclohexyl)anilino)-2-oxo-ethyl]-1-(4-isopropylbenzoyl)piperidine-4-carboxylic acid] | 9.24 nM
9 | O=C(c1ccc(C2CC2)cc1)N1CCC(CC(=O)N(c2ccccc2)C2CCCC(F)(F)C2)(C(=O)O)CC1 (racemic) [Example 70, 1-(4-cyclopropylbenzoyl)-4-[2-(N-(3,3-difluorocyclohexyl)anilino)-2-oxo-ethyl]piperidine-4-carboxylic acid] | 9.39 nM
10 | CN(C(=O)N1CCC(CC(=O)N(c2ccccc2)C2CCCOC2)(C(=O)O)CC1)c1ccc(F)cc1 (single isomer, unassigned) [Example 41A, 1-[(4-fluorophenyl)-methyl-carbamoyl]-4-[2-oxo-2-(N-tetrahydropyran-3-ylanilino)ethyl]piperidine-4-carboxylic acid] | 8.89 nM
11 | CN(C(=O)N1CCC(CC(=O)N(c2ccccc2)C2CCCOC2)(C(=O)O)CC1)c1ccc(F)cc1 (single isomer, unassigned) [Example 41B, 1-[(4-fluorophenyl)-methyl-carbamoyl]-4-[2-oxo-2-(N-tetrahydropyran-3-ylanilino)ethyl]piperidine-4-carboxylic acid] | 14.7 nM

More lines, now with the values ahead:

Row | Ki | SMILES
12 | 0.58 nM | CN(C(=O)N1CCC(CC(=O)N(c2ccccc2F)C2CCCC(F)(F)C2)(C(=O)O)CC1)c1ccccc1 (racemic) [Example 52, 4-[2-(N-(3,3-difluorocyclohexyl)-2-fluoro-anilino)-2-oxo-ethyl]-1-[methyl(phenyl)carbamoyl]piperidine-4-carboxylic acid]
13 | 2 nM | CN(C(=O)N1CCC(CC(=O)N(c2ccc(F)cc2)C2CCCC(F)(F)C2)(C(=O)O)CC1)c1ccccc1 (racemic) [Example 54, 4-[2-(N-(3,3-difluorocyclohexyl)-4-fluoro-anilino)-2-oxo-ethyl]-1-[methyl(phenyl)carbamoyl]piperidine-4-carboxylic acid]
14 | 1.04 nM | CC(C(=O)N1CCC(CC(=O)N(c2ccccc2)C2CCCC(F)(F)C2)(C(=O)O)CC1)c1ccc(F)cc1 (racemic) [Example 62, 4-[2-(N-(3,3-difluorocyclohexyl)anilino)-2-oxo-ethyl]-1-[2-(4-fluorophenyl)propanoyl]piperidine-4-carboxylic acid]
15 | 1.19 nM | CC(C(=O)N1CCC(CC(=O)N(c2ccccc2)C2CCCC(F)(F)C2)(C(=O)O)CC1)c1cccc(F)c1 (racemic) [Example 63, 4-[2-(N-(3,3-difluorocyclohexyl)anilino)-2-oxo-ethyl]-1-[2-(3-fluorophenyl)propanoyl]piperidine-4-carboxylic acid]
16 | 1.04 nM | CC(C(=O)N1CCC(CC(=O)N(c2ccccc2)C2CCCC(F)(F)C2)(C(=O)O)CC1)c1ccccc1F (racemic) [Example 64, 4-[2-(N-(3,3-difluorocyclohexyl)anilino)-2-oxo-ethyl]-1-[2-(2-fluorophenyl)propanoyl]piperidine-4-carboxylic acid]
17 | 2.55 nM | O=C(Cc1ccccc1F)N1CCC(CC(=O)N(c2ccccc2)C2CCCC(F)(F)C2)(C(=O)O)CC1 (racemic) [Example 65, 4-[2-(N-(3,3-difluorocyclohexyl)anilino)-2-oxo-ethyl]-1-[2-(2-fluorophenyl)acetyl]piperidine-4-carboxylic acid]
18 | 2.93 nM | CC(C)c1ccc(C(=O)N2CCC(CC(=O)N(c3ccccc3)C3CCCC(F)(F)C3)(C(=O)O)CC2)c(F)c1 (racemic) [Example 68, 4-[2-(N-(3,3-difluorocyclohexyl)anilino)-2-oxo-ethyl]-1-(2-fluoro-4-isopropyl-benzoyl)piperidine-4-carboxylic acid]
19 | 3.14 nM | O=C(N1CCC(CC(=O)N(c2ccccc2)C2CCCC(F)(F)C2)(C(=O)O)CC1)N1CCc2c(F)cccc21 (racemic) [Example 71, 4-[2-(N-(3,3-difluorocyclohexyl)anilino)-2-oxo-ethyl]-1-(4-fluoroindoline-1-carbonyl)piperidine-4-carboxylic acid]
20 | 1.09 nM | O=C(N1CCC(CC(=O)N(c2ccccc2)C2CCCC(F)(F)C2)(C(=O)O)CC1)N1CCc2ccc(F)cc21 (racemic) [Example 72, 4-[2-(N-(3,3-difluorocyclohexyl)anilino)-2-oxo-ethyl]-1-(6-fluoroindoline-1-carbonyl)piperidine-4-carboxylic acid]
21 | 3.03 nM | O=C(N1CCC(CC(=O)N(c2ccccc2)C2CCCC(F)(F)C2)(C(=O)O)CC1)N1CCc2cccc(F)c21 (racemic) [Example 73, 4-[2-(N-(3,3-difluorocyclohexyl)anilino)-2-oxo-ethyl]-1-(7-fluoroindoline-1-carbonyl)piperidine-4-carboxylic acid]
22 | 10.8 nM | O=C(N1CCC(CC(=O)N(c2ccccc2)C2CCCC(F)(F)C2)(C(=O)O)CC1)N1CCc2ccccc21 (single isomer, unassigned) [Example 35A, 4-[2-(N-(3,3-difluorocyclohexyl)anilino)-2-oxo-ethyl]-1-(indoline-1-carbonyl)piperidine-4-carboxylic acid]
